Reference: patent US10155021B2, “Antimicrobial 4-oxoquinolizines” (Emergent Product Development Gaithersburg Inc., priority 2011, dated 2018)
Converted amounts (≈) assume the structure as drawn. Like-named read-outs stand apart in the source and are kept apart here.

Columns and labels:
[1] = test system: P. aeruginosa 27853; test: MIC, standard panel of Gram-positive and Gram-negative bacteria (CLSI); format: cell-based, Pseudomonas aeruginosa; details: Pseudomonas aeruginosa, 27853; CAMHB; read-out: MIC P. aeruginosa 27853
[2] = test system: A. baumannii A489; test: MIC determination for Acinetobacter strains (Example 3); format: cell-based; details: LEV R, CIP R, MRP R, IMP R, AMK R, TET R
[3] = test system: A. baumannii A329; test: MIC without and with sub-inhibitory polymyxin B (Example 4); format: cell-based, Acinetobacter baumannii; details: Acinetobacter baumannii
[4] = test system: A. baumannii J2; test: MIC determination for Acinetobacter strains (Example 3); format: cell-based; details: LEV R, CIP R
[5] = test system: A. baumannii A387; test: Preliminary MBC without and with sub-inhibitory polymyxin B (Example 4); format: cell-based, Acinetobacter baumannii; details: Acinetobacter baumannii, A387, A. baumannii A387, without polymyxin B, read-out: MBC without PB
[6] = test system: S. aureus 25923 HS; test: MIC, standard panel of Gram-positive and Gram-negative bacteria (CLSI); format: cell-based; details: Staphylococcus aureus, CAMHB, HS, read-out: MIC S. aureus 25923 HS
[7] = test system: A. baumannii J2; test: Preliminary MBC without and with sub-inhibitory polymyxin B (Example 4); format: cell-based, Acinetobacter baumannii; details: Acinetobacter baumannii, J2, A. baumannii J2, without polymyxin B, preliminary MBC, read-out: MBC without PB
[8] = test system: A. baumannii A473; test: MIC determination for Acinetobacter strains (Example 3); format: cell-based; details: LEV R, CIP R, MRP R, IMP R, AMK R, TET R
[9] = test system: A. baumannii A387; test: as above; format: cell-based; details: LEV I, CIP R, IPM R, AMK R, TET R
[10] = test system: E. coli 25922; test: MIC, standard panel of Gram-positive and Gram-negative bacteria (CLSI); format: cell-based, Escherichia coli; details: Escherichia coli, 25922; CAMHB; read-out: MIC E. coli 25922
[11] = test system: A. baumannii A387; test: MIC without and with sub-inhibitory polymyxin B (Example 4); format: cell-based, Acinetobacter baumannii; details: Acinetobacter baumannii, A387, A. baumannii A387, without polymyxin B, read-out: MIC without PB
[12] = test system: B. thailandensis; test: microbe, parasite or virus in culture; format: cell-based, Burkholderia thailandensis; details: Burkholderia thailandensis, read-out: MIC90 B. thailandensis
[13] = test system: S. aureus 25923; test: MIC, standard panel of Gram-positive and Gram-negative bacteria (CLSI); format: cell-based, Staphylococcus aureus; details: Staphylococcus aureus, 25923; CAMHB; read-out: MIC S. aureus 25923
[14] = test system: S. pneumoniae 1027; test: MIC, panel of quinolone-resistant strains (CLSI); format: cell-based; details: Streptococcus pneumoniae, LEV R
[15] = test system: A. Baumanii OXA-51; test: MIC, panel of quinolone-resistant strains (CLSI); format: cell-based; details: Acinetobacter baumannii; CIP R, ESBL
[16] = test system: 11 strains of A. baumannii and one strain of Acinetobacter sp.; test: Preliminary MBC without and with sub-inhibitory polymyxin B, whole panel (Example 4; also strains not listed separately); format: cell-based; details: Acinetobacter baumannii, read-out: MBC without PB
[17] = test system: E. coli IMP; test: microbe, parasite or virus in culture; details: Escherichia coli, read-out: MIC E. coli IMP
[18] = test system: S. epidermis 12228; test: MIC, standard panel of Gram-positive and Gram-negative bacteria (CLSI); format: cell-based, Staphylococcus epidermis; details: Staphylococcus, 12228; CAMHB; read-out: MIC S. epidermis 12228
[19] = test system: A. baumannii A390; test: MIC determination for Acinetobacter strains (Example 3); format: cell-based; details: LEV R, CIP R, MRP R, IPM I, AMK R, TET I
[20] = test system: S. pneumoniae 49619; test: MIC, panel of quinolone-resistant strains (CLSI); format: cell-based; details: Streptococcus pneumoniae, LEV S
[21] = test system: A. baumannii A390; test: MIC without and with sub-inhibitory polymyxin B (Example 4); format: cell-based, Acinetobacter baumannii; details: Acinetobacter baumannii, A390, A. baumannii A390, without polymyxin B, read-out: MIC without PB
[22] = test system: S. aureus SMITH; test: MIC, panel of quinolone-resistant strains (CLSI); format: cell-based; details: Staphylococcus aureus; CIP R
[23] = test system: A. baumannii ATCC 19606; test: MIC determination for Acinetobacter strains (Example 3); format: cell-based; details: ATCC19606, reference strain
[24] = A329, A. baumannii A329, without polymyxin B, 1st experiment, read-out: MIC without PB
[25] = A329, A. baumannii A329, without polymyxin B, 2nd experiment, visual reading, read-out: MIC without PB
[26] = A329, read-out: MIC +0.06 μg/ml PB, read with alamar blue, A. baumannii A329, +0.06 μg/ml polymyxin B, 2nd experiment, MIC read with alamar blue

SMILES	MIC [1] [µg/mL]	MIC [2] [µg/mL]	MIC [3, 24] [µg/mL]	MIC [3, 25] [µg/mL]	MIC [3, 26] [µg/mL]	MIC [4] [µg/mL]	MBC ([5]; 2nd experiment) [µg/mL]	MBC ([7]; 2nd experiment) [µg/mL]	MBC ([7]; 1st experiment) [µg/mL]	MIC [8] [µg/mL]	MIC [9] [µg/mL]	MIC [10] [µg/mL]	MIC ([11]; 1st experiment) [µg/mL]	MIC ([11]; 2nd experiment, visual reading) [µg/mL]	MIC90 [12] [µg/mL]	MIC [13] [µg/mL]	MIC [14] [µg/mL]	MIC [15] [µg/mL]	MIC [17] [µg/mL]	MIC [18] [µg/mL]	also measured
Cc1c(-c2cc(Cl)c(N)c(Cl)c2)ccn2c(=O)c(C(=O)O)cc(C3CC3)c12 [Compound 3, 8-(3,5-dichloro-4-amino-phenyl)-1-cyclopropyl-9-methyl-4-oxo-quinolizine-3-carboxylic acid]	2 (≈ 4.96 µM)	4 (≈ 9.92 µM)	16 (≈ 39.7 µM)	16 (≈ 39.7 µM)	1	8 (≈ 19.8 µM)	4 (≈ 9.92 µM)	32 (≈ 79.4 µM)	8 (≈ 19.8 µM)	4 (≈ 9.92 µM)	1 (≈ 2.48 µM)	< 0.03	1 (≈ 2.48 µM)	1 (≈ 2.48 µM)	< 0.048	< 0.008	2 (≈ 4.96 µM)	8 (≈ 19.8 µM)			MBC ([5]; 1st experiment): 1 µg/mL (≈ 2.48 µM); MIC [6]: 1 µg/mL (≈ 2.48 µM)
Cc1c(-c2cc(F)c(N)cc2F)ccn2c(=O)c(C(=O)O)cc(C3CC3)c12 [Compound 2, 8-(3,6-difluoro-4-amino-phenyl)-1-cyclopropyl-9-methyl-4-oxo-quinolizine-3-carboxylic acid]	2 (≈ 5.4 µM)	2 (≈ 5.4 µM)	8 (≈ 21.6 µM)	8 (≈ 21.6 µM)	1	4 (≈ 10.8 µM)	1 (≈ 2.7 µM)	8 (≈ 21.6 µM)	4 (≈ 10.8 µM)	8 (≈ 21.6 µM)	0.5 (≈ 1.35 µM)	< 0.03	0.5 (≈ 1.35 µM)	1 (≈ 2.7 µM)	< 0.048	< 0.008		4 (≈ 10.8 µM)	< 0.008	< 0.008	MBC ([16]; A. baumannii A14, without polymyxin B, 1st experiment): 16 µg/mL (≈ 43.2 µM); MBC ([16]; A. baumannii A14, without polymyxin B, 2nd experiment): 16 µg/mL (≈ 43.2 µM); MBC ([16]; NCTC13301, A. baumannii NCTC 13301, without polymyxin B, 1st experiment): 8 µg/mL (≈ 21.6 µM); MBC ([16]; NCTC13301, A. baumannii NCTC 13301, without polymyxin B, 2nd experiment): 32 µg/mL (≈ 86.4 µM); MIC [19]: 8 µg/mL (≈ 21.6 µM); MIC [20]: < 0.03 µg/mL; MIC ([21]; 1st experiment): 8 µg/mL (≈ 21.6 µM); MIC [22]: < 0.03 µg/mL
Cc1c(-c2ccc(N)cc2)ccn2c(=O)c(C(=O)O)cc(C3CC3)c12 [Compound 8, 8-(4-amino-phenyl)-1-cyclopropyl-9-methyl-4-oxo-quinolizine-3-carboxylic acid]	1 (≈ 2.99 µM)		16 (≈ 47.9 µM)					4 (≈ 12 µM)	8 (≈ 23.9 µM)					1 (≈ 2.99 µM)	< 0.024	< 0.008	2 (≈ 5.98 µM)	4 (≈ 12 µM)	< 0.008	< 0.008	MIC [19]: 16 µg/mL (≈ 47.9 µM); MIC [20]: < 0.03 µg/mL; MIC [23]: 1 µg/mL (≈ 2.99 µM); MIC ([21]; 1st experiment): 16 µg/mL (≈ 47.9 µM); MIC ([21]; 2nd experiment, visual reading): 16 µg/mL (≈ 47.9 µM); MIC [22]: < 0.03 µg/mL
